Laboratory results from paper PMC7887336, “Altered functional properties of the codling moth Orco mutagenized in the intracellular loop-3” (Scientific Reports, 2021).
Where “and” joins values, the source holds several entries; their conditions need not be identical. Equal values may be shown once.

How the values were obtained:
CpomOrco^Q417H [1] = target: T1, CpomOrco^Q417H (Cydia pomonella, UniProt H9A5M2, Q417H); test: Calcium imaging (Fluo-4) of HEK293A cells transfected with mutagenized CpomOrco^Q417H, VUAA1 stimulation; assay type: cell-based; details: for EC50: EC50, HEK293A; for Hill coefficient / maximum response (Hill fit of calcium response amplitudes): HEK293A
T1 sequence (H9A5M2 entry or part of it Q417H): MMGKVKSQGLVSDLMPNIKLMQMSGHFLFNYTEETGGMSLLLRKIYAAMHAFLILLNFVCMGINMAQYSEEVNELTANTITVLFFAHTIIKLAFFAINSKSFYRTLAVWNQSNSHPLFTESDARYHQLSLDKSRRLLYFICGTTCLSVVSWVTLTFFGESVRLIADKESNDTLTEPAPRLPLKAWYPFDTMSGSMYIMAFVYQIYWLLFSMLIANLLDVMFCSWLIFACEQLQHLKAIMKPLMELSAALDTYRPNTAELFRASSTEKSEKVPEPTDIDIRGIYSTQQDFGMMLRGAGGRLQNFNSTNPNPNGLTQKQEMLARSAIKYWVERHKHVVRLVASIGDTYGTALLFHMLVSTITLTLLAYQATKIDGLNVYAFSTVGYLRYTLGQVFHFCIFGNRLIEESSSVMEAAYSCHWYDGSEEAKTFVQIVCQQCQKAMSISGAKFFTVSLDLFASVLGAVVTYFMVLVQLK
Method: (§1) HEK293 cells lines (HEK293A/HEK293T) were grown in HEK cell media [Dulbecco's modified Eagle's medium containing 10% fetal bovine serum (MP Biomedicals, Solon, OH, USA), 2.0 mM L-glutamine, and 100 µg/mL penicillin/streptomycin (Invitrogen)] at 37 °C and 5% CO2. To test transient expression of wild type CpomOrco and CpomOrco^Q417H variant for calcium imaging and patch-clamp recording, 35-mm petri dishes containing semi-confluent HEK293A cells were transiently transfected. Cells were transfected with 0.6 µg of pcDNA40-DEST carrying the coding sequence of the CpomOrco variant (depending on the experiments). To report expression for calcium imaging experiments, 0.6 µg of a separate plasmid DNA [pEBFP2-Nuc, a gift from Robert Campbell (Addgene plasmid # 1489352)] carrying the coding sequence for a blue fluorescent protein (EBFP) was co-transfected. To report expression in patch-clamp recordings, 1.0 µg of a separate plasmid DNA (pXOOM, Clontech, Mountain View, CA, USA) carrying the coding sequence for a green fluorescent protein (GFP) was co-transfected. Expressions of fluorescent reporter genes were under the regulation of the same promoter for Cpom-genes (CMV). For specific experiments, co-transfections were conducted combining an additional 1.2 µg of pcDNA40-DEST/CpomOR3 or pcDNA40-DEST/CpomOR6a, as we previously described. Co-transfections with CpomOR3 were performed for dose–response experiments to pear ester: CpomOR3 was co-expressed with CpomOrco variants by the use of HEK293T (Fig. 3b); given the reported functional co-expression data of the CpomOrco + OR3 heteromers by the use of these specific cells. In brief, transfection DNAs were dissolved in 100 µL sterile DMEM, mixed with 3.0 µL Calfectin (SignaGen, Rockville, MD, USA) following the recommended protocol. Transfections were conducted overnight for up to 18 h, HEK cell media was replaced with 2.0 mL fresh media to incubate cells at 37 °C for up to 6–8 h, at which point part of the cell culture was spread in the middle of a 35-mm plate as individual cells or small clusters and rinsed at the sides with 2.0 mL fresh HEK media. After splitting, cells were allowed to recover for at least 1 day prior to calcium imaging.
Activation of HEK293 cells transfected with CpomOrco variants was tested using the same procedures we previously described. Petri dishes were incubated for 1 h at room temperature in 1.0 mL HEK Ca^++ Ringer (mM: 140 NaCl, 5.0 KCl, 2.0 CaCl2, 10 HEPES, pH 7.4) containing the fluorescent calcium indicator Fluo-4AM (Invitrogen) at 5–15 µM prepared with 0.2–0.06% Pluronic F-127 (Invitrogen). To monitor intracellular pH, HEK293A cells were loaded with 10.0 µL BCECF dye (Anaspec, Fremont, CA).
As reported in Cattaneo et al.[14], the buffer was removed after incubation, cells were rinsed with 4.0 mL fresh HEK Ca^++ Ringer and placed on the stage of an inverted microscope (Olympus IX-71, Olympus Corp., Tokyo, Japan) equipped with a cooled CCD camera (ORCA R2, Hamamatsu, Hamamatsu City, Japan). Cells were continuously superfused with Ca^++ Ringer using two gravity fed perfusion contours. The […] contour washing the cells (~ 250 µL/min) was switched rapidly to the stimulus contour using a multi-channel rapid solution changer (RSC-160, Bio-Logic, Claix, France) under the software control of Clampex 9 (Molecular Devices, Sunnyvale, CA, USA).
(§2) Fluorescence imaging was performed using settings optimized for Imaging Workbench 6 software (INDEC BioSystems, Santa Clara, CA, USA)[14]. The non-responsive cells were not included in these analyses. Each cell was assigned a region of interest (ROI) and changes in fluorescence intensity within each ROI were measured and expressed as the fractional change in fluorescence intensity (dF). Stored time series image stacks were analysed off-line using Imaging Workbench 6, Clampfit 10.5 (Molecular Devices) and SigmaPlot 11 (Systat Software Inc., San Jose, CA, USA). Dose–response curves were approximated using Hill equation. […]

CpomOrco^Q417H [2] = target: T1, CpomOrco^Q417H; test: Whole-cell voltage-clamp recordings of HEK293A cells transfected with CpomOrco^Q417H, VUAA1; assay type: cell-based; details: for EC50: EC50 (K1/2)
Method: as §1
Electrophysiological experiments were performed according with the same procedures we previously described. Patch pipettes were fabricated from borosilicate capillary glass (BF150-86–10, Sutter Instrument, CA, USA) using a Flaming-Brown micropipette puller (P-87, Sutter Instrument). Only patches with initial cell-attached seal resistance estimated higher than 1.0 GOhms were used in the experiments. Intracellular (pipette) solution for whole-cell experiments was KCl 140 mM, EGTA 1 mM, Hepes 5 mM, MES 5 mM, pH 8.0 or pH 5.5 (depending on the experiment) adjusted with either NaOH or HCl, standard Na^+ 140 mM. bath solution was usually NaCl 140 mM, EGTA 0.1 mM, Hepes 10 mM, pH 7.4 (adjusted with Tris-base or NaOH). VUAA1 doses (0–1000 µM) were added to the extracellular test solutions.
As described in methods of Cattaneo et al.[14], GFP positive HEK293A cells were visualized using either an Axiovert 100 inverted microscope (Carl Zeiss, Inc., München, Germany) equipped with a mercury vapour compressed-arc lamp (HBO100) coupled to widefield fluorescence filter set (1114–459, Carl Zeiss, Inc.) or Olympus IX-71 inverted microscope described above (Olympus Corp.). The Orco channel-mediated currents were investigated using whole-cell patch-clamp recordings. The currents were measured with a 200B patch-clamp amplifier (Molecular Devices) and a digital interface (Digidata 1320A, Molecular Devices), low pass filtered at 5.0 kHz, sampled at 1–2 kHz. Analysis of the data was carried out using pCLAMP 9.2/10.5 software (Molecular Devices) and SigmaPlot 11 (Systat Software Inc). […]

CpomOrco^Q417H+OR6a = test: VUAA1 responsiveness (Fluo4 +) of HEK293A cells co-transfected with CpomOrco^Q417H and CpomOR6a; assay type: cell-based, Cydia pomonella; details: for Fluo4 + cells, %: of bright field cells
Method: HEK293 cells lines (HEK293A/HEK293T) were grown in HEK cell media [Dulbecco's modified Eagle's medium containing 10% fetal bovine serum (MP Biomedicals, Solon, OH, USA), 2.0 mM L-glutamine, and 100 µg/mL penicillin/streptomycin (Invitrogen)] at 37 °C and 5% CO2. To test transient expression of wild type CpomOrco and CpomOrco^Q417H variant for calcium imaging and patch-clamp recording, 35-mm petri dishes containing semi-confluent HEK293A cells were transiently transfected. Cells were transfected with 0.6 µg of pcDNA40-DEST carrying the coding sequence of the CpomOrco variant (depending on the experiments). To report expression for calcium imaging experiments, 0.6 µg of a separate plasmid DNA [pEBFP2-Nuc, a gift from Robert Campbell (Addgene plasmid # 1489352)] carrying the coding sequence for a blue fluorescent protein (EBFP) was co-transfected. To report expression in patch-clamp recordings, 1.0 µg of a separate plasmid DNA (pXOOM, Clontech, Mountain View, CA, USA) carrying the coding sequence for a green fluorescent protein (GFP) was co-transfected. Expressions of fluorescent reporter genes were under the regulation of the same promoter for Cpom-genes (CMV). For specific experiments, co-transfections were conducted combining an additional 1.2 µg of pcDNA40-DEST/CpomOR3 or pcDNA40-DEST/CpomOR6a, as we previously described. […]
as §2, with “The non-responsive cells were not included in these analyses.” left out, “USA).” for “USA). Dose–response curves were approximated using Hill equation.”

[3] = after 30 min incubation at low pHe = 4.7
[4] = intracellular pH = 5.5, extracellular pH 7.4, -50 mV
[5] = intracellular pH = 8.0, extracellular pH 7.4, -50 mV

SMILES: CCc1ccc(NC(=O)CSc2nnc(-c3cccnc3)n2CC)cc1 [VUAA1, acetamide,N-(4-ethylphenyl)-2-[[4-ethyl-5-(3-pyridinyl)-4H-1,2,4-triazol-3-yl]thio]-]
- EC50 (CpomOrco^Q417H [1]; [3]): ~263 µM
- EC50 (CpomOrco^Q417H [1]; control pH conditions (pH 7.4), Hill fit): ~261 µM and ~262 µM
- Hill coefficient (CpomOrco^Q417H [1]; [3]): ~ 2.2 ± 0.5
- maximum response (Hill fit of calcium response amplitudes) (CpomOrco^Q417H [1]; after 30 min incubation at low pHe = 4.7, n = 63, constraints applied to fit): ~ 1.8 ± 0.2 ∆F and 1.8 ∆F
- Hill coefficient (CpomOrco^Q417H [1]; control pH conditions (pH 7.4)): ~ 2.1 ± 1.9
- maximum response (Hill fit of calcium response amplitudes) (CpomOrco^Q417H [1]; control pH conditions (pH 7.4), N = 94 cells): ~ 3.9 ∆F and ~ 3.9 ± 1.3 ∆F and 3.9 ∆F
- EC50 (CpomOrco^Q417H [2]; [4]): ~550 µM
- EC50 (CpomOrco^Q417H [2]; [5]): ~615 µM
- h (Hill equation) (CpomOrco^Q417H [2]; intracellular pH = 5.5): ~ 4 ± 1.4
- number of cells sensitive to VUAA1 (CpomOrco^Q417H [2]; intracellular pH = 5.5, GFP positive cells tested): 6 out of 9
- Imax (whole-cell current amplitude, Hill fit) (CpomOrco^Q417H [2]; [4]): ~216 pA and ~ 216 ± 23 pA
- h (Hill equation) (CpomOrco^Q417H [2]; intracellular pH = 8.0): ~ 5 ± 1.9
- number of cells sensitive to VUAA1 (CpomOrco^Q417H [2]; intracellular pH = 8.0, GFP positive cells tested): 11 out of 17
- Imax (whole-cell current amplitude, Hill fit) (CpomOrco^Q417H [2]; [5]): ~ 332 pA and ~ 332 ± 44 pA
- Fluo4 + cells, % (CpomOrco^Q417H+OR6a; 800 µM VUAA1, Experiment 3, CpomOrcoQ417H+OR6a): 8,41%
- Fluo4 + cells, % (CpomOrco^Q417H+OR6a; 800 µM VUAA1, Experiment 4, CpomOrcoQ417H+OR6a): 10,33%
- percentage of VUAA1 sensitive cells (CpomOrco^Q417H+OR6a; 800 µM VUAA1, HEK293A co-transfected with CpomOrco^Q417H, CpomOR6a and EBFP, range of two experiments): 8.41–10.33%
